Measurements as given in PubChem BioAssay (NCI).
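The compound was tested at five concentrations on cells cultured in 96-well plates, with a 48-hour exposure period. GI50 is the concentration that inhibits growth by half. TGI denotes the concentration required for complete inhibition of growth.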

Experiments:
Assay in all cases: NCI anticancer screen, dose series, 48 h
[1] = system: MDA-MB-435
[2] = system: UACC-62 melanoma
[3] = system: NCI-H460 lung
[4] = system: SR leukemia
[5] = system: HOP-62 NSCLC
[6] = system: HS 578T breast
[7] = system: MCF7 breast
[8] = system: IGROV1 ovarian
[9] = system: SNB-75 CNS
[10] = system: A549 NSCLC
[11] = system: SN12C renal
[12] = system: HCT-116 colon
[13] = system: SW-620 colon
[14] = system: CAKI-1 renal
[15] = system: UACC-257 melanoma
[16] = system: CCRF-CEM leukemia
[17] = system: ACHN renal
[18] = system: NCI/ADR-RES ovarian
[19] = system: HL-60(TB) leukemia
[20] = system: SK-MEL-28 melanoma
[21] = system: SK-MEL-2 melanoma
[22] = system: HCT-15 colon
[23] = system: SF-295 CNS
[24] = system: HOP-92 NSCLC
[25] = system: PC-3 prostate
[26] = system: TK-10 renal
[27] = system: SF-268 CNS
[28] = system: UO-31 renal
[29] = system: LOX IMVI melanoma
[30] = system: SNB-19 CNS
[31] = system: COLO 205 colon
[32] = system: SK-MEL-5 melanoma
[33] = system: MOLT-4 leukemia
[34] = system: NCI-H522 lung
[35] = system: KM12 colon
[36] = system: RXF 393 renal
[37] = system: T-47D breast
[38] = system: 786-0 renal
[39] = system: MDA-MB-231 breast
[40] = system: OVCAR-4 ovarian
[41] = system: HT29 colon
[42] = system: K-562 leukemia
[43] = system: OVCAR-3 ovarian
[44] = system: NCI-H23 lung
[45] = system: NCI-H226 lung
[46] = system: BT-549 breast
[47] = system: OVCAR-5 ovarian
[48] = system: SK-OV-3 ovarian
[49] = system: DU-145 prostate
[50] = system: M14 melanoma
[51] = system: SF-539 CNS
[52] = system: MALME-3M melanoma
[53] = system: A498 renal
[54] = system: U251 CNS
[55] = system: HCC-2998 colon
[56] = system: RPMI-8226 leukemia
[57] = system: OVCAR-8 ovarian

COc1cc(-c2nn(-c3cccc(NC(=O)c4ccc(N5CCOCC5)c(C(F)(F)F)c4)c3)cc2-c2ccncc2)ccc1Cl
GI50 [1]: 25.2 nM
TGI [1]: 82.7 nM
GI50 [2]: 207 nM
TGI [2]: 7070 nM
GI50 [3]: 299 nM
TGI [3]: > 20400 nM
GI50 [4]: 36.9 nM
TGI [4]: > 100000 nM
GI50 [5]: 524 nM
TGI [5]: > 58600 nM
GI50 [6]: 257 nM
GI50 [7]: 263 nM
TGI [7]: > 100000 nM
GI50 [8]: 405 nM
TGI [8]: 9810 nM
GI50 [9]: 81.8 nM
TGI [9]: 572 nM
GI50 [10]: 287 nM
TGI [10]: > 36900 nM
GI50 [11]: 709 nM
TGI [11]: > 75800 nM
GI50 [12]: 299 nM
TGI [12]: > 32900 nM
GI50 [13]: 168 nM
TGI [13]: > 56900 nM
GI50 [14]: 293 nM
TGI [14]: 3190 nM
GI50 [15]: 496 nM
TGI [15]: 6860 nM
GI50 [16]: 236 nM
TGI [16]: > 100000 nM
GI50 [17]: 585 nM
TGI [17]: > 100000 nM
GI50 [18]: 203 nM
TGI [18]: > 100000 nM
GI50 [19]: 233 nM
GI50 [20]: 936 nM
TGI [20]: > 84800 nM
GI50 [21]: 210 nM
TGI [21]: 2460 nM
GI50 [22]: 226 nM
TGI [22]: > 100000 nM
GI50 [23]: 150 nM
TGI [23]: 1150 nM
GI50 [24]: 128 nM
TGI [24]: 952 nM
GI50 [25]: 166 nM
TGI [25]: 5220 nM
GI50 [26]: 1220 nM
TGI [26]: 19500 nM
GI50 [27]: 559 nM
TGI [27]: > 48100 nM
GI50 [28]: 322 nM
TGI [28]: 8770 nM
GI50 [29]: 371 nM
TGI [29]: 6200 nM
GI50 [30]: 570 nM
TGI [30]: > 100000 nM
GI50 [31]: 446 nM
TGI [31]: 1690 nM
GI50 [32]: 126 nM
TGI [32]: 966 nM
GI50 [33]: 669 nM
TGI [33]: > 100000 nM
GI50 [34]: 60.6 nM
TGI [34]: 915 nM
GI50 [35]: 213 nM
TGI [35]: 8780 nM
GI50 [36]: 207 nM
TGI [36]: 809 nM
GI50 [37]: 471 nM
TGI [37]: > 28900 nM
GI50 [38]: 561 nM
TGI [38]: 2810 nM
GI50 [39]: 384 nM
TGI [39]: 3540 nM
GI50 [40]: 1510 nM
TGI [40]: > 100000 nM
GI50 [41]: 466 nM
TGI [41]: 2190 nM
GI50 [42]: 55.5 nM
TGI [42]: > 100000 nM
GI50 [43]: 147 nM
TGI [43]: 1190 nM
GI50 [44]: 826 nM
TGI [44]: 34200 nM
GI50 [45]: 1070 nM
TGI [45]: 99200 nM
GI50 [46]: 932 nM
TGI [46]: > 42000 nM
GI50 [47]: 1200 nM
TGI [47]: > 86400 nM
GI50 [48]: 345 nM
TGI [48]: 5340 nM
GI50 [49]: 379 nM
TGI [49]: > 39300 nM
GI50 [50]: 346 nM
TGI [50]: 13800 nM
GI50 [51]: 181 nM
TGI [51]: 552 nM
GI50 [52]: 76.9 nM
TGI [52]: 1540 nM
GI50 [53]: 103 nM
TGI [53]: 765 nM
GI50 [54]: 360 nM
TGI [54]: 4320 nM
GI50 [55]: 1500 nM
TGI [55]: 7000 nM
GI50 [56]: 269 nM
TGI [56]: > 100000 nM
GI50 [57]: 468 nM
TGI [57]: > 100000 nM
